The text below walks through data of patent publication US11732000B2, “Oxysterols and methods of use thereof” (Sage Therapeutics, Inc., priority 2015, dated 2023).

The structures appear in SMILES notation.

In the first assay the target is T1, GlunN1/GluN2A glutamate receptors (Homo sapiens, UniProt Q05586+Q12879).
T1 construct: expressed in transfected cells
T1 sequence (Q12879 23-1464, other chains not shown): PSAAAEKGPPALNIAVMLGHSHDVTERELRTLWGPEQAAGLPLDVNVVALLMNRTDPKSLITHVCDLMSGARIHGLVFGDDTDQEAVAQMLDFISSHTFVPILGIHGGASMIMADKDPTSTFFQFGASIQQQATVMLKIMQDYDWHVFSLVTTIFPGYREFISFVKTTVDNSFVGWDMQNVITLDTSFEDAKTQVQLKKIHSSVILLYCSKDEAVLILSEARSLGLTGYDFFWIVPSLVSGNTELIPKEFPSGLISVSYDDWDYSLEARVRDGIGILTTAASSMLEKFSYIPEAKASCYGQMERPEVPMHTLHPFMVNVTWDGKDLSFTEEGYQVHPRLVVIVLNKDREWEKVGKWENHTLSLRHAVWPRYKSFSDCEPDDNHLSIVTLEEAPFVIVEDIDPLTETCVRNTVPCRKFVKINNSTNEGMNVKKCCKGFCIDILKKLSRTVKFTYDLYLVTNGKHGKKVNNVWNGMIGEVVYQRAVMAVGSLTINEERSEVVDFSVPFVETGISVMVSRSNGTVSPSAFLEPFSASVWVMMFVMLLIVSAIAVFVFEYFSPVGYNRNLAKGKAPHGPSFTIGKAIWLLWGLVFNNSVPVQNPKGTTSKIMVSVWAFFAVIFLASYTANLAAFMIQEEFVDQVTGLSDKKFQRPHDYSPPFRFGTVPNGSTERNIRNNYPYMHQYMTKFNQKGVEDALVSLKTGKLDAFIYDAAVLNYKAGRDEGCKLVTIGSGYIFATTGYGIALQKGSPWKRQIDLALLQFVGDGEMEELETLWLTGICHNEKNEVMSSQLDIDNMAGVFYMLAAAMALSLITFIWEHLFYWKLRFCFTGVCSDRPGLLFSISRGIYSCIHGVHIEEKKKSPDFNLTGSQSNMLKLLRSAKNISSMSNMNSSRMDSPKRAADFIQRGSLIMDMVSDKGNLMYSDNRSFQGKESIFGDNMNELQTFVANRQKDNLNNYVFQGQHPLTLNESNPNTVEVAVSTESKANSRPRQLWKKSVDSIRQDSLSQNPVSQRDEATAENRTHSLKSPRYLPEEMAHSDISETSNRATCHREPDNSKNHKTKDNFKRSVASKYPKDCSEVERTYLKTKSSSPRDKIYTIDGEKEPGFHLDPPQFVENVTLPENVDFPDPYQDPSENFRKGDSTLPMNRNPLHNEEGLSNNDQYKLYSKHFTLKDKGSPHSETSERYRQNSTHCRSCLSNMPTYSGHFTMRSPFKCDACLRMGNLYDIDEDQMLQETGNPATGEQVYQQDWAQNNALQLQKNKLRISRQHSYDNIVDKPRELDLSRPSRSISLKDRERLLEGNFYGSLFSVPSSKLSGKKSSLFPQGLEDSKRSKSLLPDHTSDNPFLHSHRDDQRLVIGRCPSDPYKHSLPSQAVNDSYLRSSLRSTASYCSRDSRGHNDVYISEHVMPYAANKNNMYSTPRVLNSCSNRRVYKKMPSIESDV
Put plainly: NMDA potentiation, whole-cell patch clamp of mammalian cells (IonWorks Barracuda, IWB). Format: cell-based. As to conditions: 3 μM test article; HEK293 cells expressing human GRIN1/GRIN2A; co-application with EC20 L-glutamate and 30 μM glycine. How it is done:
NMDA potentiation was assessed using either whole cell patch clamp of mammalian cells which expressed NMDA receptors.
Whole-Cell Patch Clamp of Mammalian Cells (IONWORKS BARRACUDA® (IWB))
The whole-cell patch-clamp technique was used to investigate the effects of compounds GlunN1/GluN2A glutamate receptors expressed in mammalian cells.
HEK293 cells were transformed with adenovirus 5 DNA and transfected with cDNA encoding the human GRIN1/GRIN2A genes. Stable transfectants were selected using G418 and ZEOCIN™ (phleomycins)-resistance genes incorporated into the expression plasmid and selection pressure maintained with G418 and ZEOCIN™ (phleomycins) in the medium. Cells were cultured in Dulbecco's Modified Eagle Medium/Nutrient Mixture (D-MEM/F-12) supplemented with 10% fetal bovine serum, 100 μg/ml penicillin G sodium, 100 μg/ml streptomycin sulphate, 100 μg/ml Zeocin, 5 μg/ml blasticidin and 500 μg/ml G418.
Test article effects were evaluated in 8-point concentration-response format (4 replicate wells/concentration). All test and control solutions contained 0.3% DMSO and 0.01% KOLLIPHOR® (polyethoxylated castor oil) EL (C5135, Sigma). The test article formulations were loaded in a 384-well compound plate using an automated liquid handling system (SCICLONE® ALH3000, Caliper Life Sciences). The measurements were performed using IWB platform following this procedure:
Electrophysiological Procedures:
• a) Intracellular solution (mM): 50 mM CsCl, 90 mM CsF, 2 mM MgCl2, 5 mM EGTA, 10 mM HEPES. Adjust to pH 7.2 with CsOH. • b) Extracellular solution, HB-PS (composition in mM): NaCl, 137; KCl, 1.0; CaCl2), 5; HEPES, 10; Glucose, 10; pH adjusted to 7.4 with NaOH (refrigerated until use). • c) Holding potential: −70 mV, potential during agonist/PAM application: −40 mV. Recording Procedure: • a) Extracellular buffer will be loaded into the PPC plate wells (11 μL per well). Cell suspension will be pipetted into the wells (9 μL per well) of the PPC planar electrode. • b) Whole-cell recording configuration will be established via patch perforation with membrane currents recorded by on-board patch clamp amplifiers. • c) Two recordings (scans) will be performed. First, during pre-application of test article alone (duration of pre-application −5 min) and second, during test articles and agonist (EC20 L-glutamate and 30 μM glycine) co-application to detect positive modulatory effects of the test article.
Test Article Administration: The first pre-application will consist of the addition of 20 μL of 2× concentrated test article solution and, second, of 20 μL of 1× concentrated test article and agonist at 10 μL/s (2 second total application time).
For the compound `CC[C@]1(O)CC[C@@]2(C)C(=CC[C@H]3[C@@H]4CC[C@H]([C@H](C)CC[C@H](O)C5CC5)[C@@]4(C)CC[C@@H]32)C1` (single isomer, unassigned) [Compound 25], the “GluN2A PCA IWB Ephys % potentiation at 3 μM” value is on record as “C (“C” indicates potentiation of >150%)”. As for `CC[C@]1(O)CC[C@@]2(C)[C@@H](CC[C@@H]3[C@@H]2CC[C@]2(C)[C@@H]([C@H](C)CC[C@@H](O)C(C)C)CC[C@@H]32)C1` [Compound 15], the “GluN2A PCA IWB Ephys % potentiation at 3 μM” value is “C (“C” indicates potentiation of >150%)”. Still for that read-out and setting: the entry for `CC[C@]1(O)CC[C@@]2(C)C(=CC[C@H]3[C@@H]4CC[C@H]([C@H](C)CC[C@@H](O)C5CC5)[C@@]4(C)CC[C@@H]32)C1` [Compound 26] is “C (“C” indicates potentiation of >150%)”; for `C[C@H](CC[C@H](O)C1CC1)[C@H]1CC[C@H]2[C@@H]3CC=C4C[C@@](C)(O)CC[C@]4(C)[C@H]3CC[C@]12C` [Compound 28] it is “C (“C” indicates potentiation of >150%)”. The same measure, in the same setting: the entry for `C[C@H](CC[C@@H](O)C1CC1)[C@H]1CC[C@H]2[C@@H]3CC=C4C[C@@](C)(O)CC[C@]4(C)[C@H]3CC[C@]12C` [Compound 29] is “B (“B” indicates potentiation of >75% to 150%)”; for `C[C@H](CC[C@@H](O)C1CC1)[C@H]1CC[C@H]2[C@@H]3CC[C@H]4C[C@@](C)(O)CC[C@]4(C)[C@H]3CC[C@]12C` [Compound 32] it is “C (“C” indicates potentiation of >150%)”. Take `C[C@H](CC[C@H](O)C1CCC1)[C@H]1CC[C@H]2[C@@H]3CC=C4C[C@@](C)(O)CC[C@]4(C)[C@H]3CC[C@]12C` [Compound 41-A]: the “GluN2A PCA IWB Ephys % potentiation at 3 μM” value was “C (“C” indicates potentiation of >150%)”.

`C[C@H](CC[C@H](O)C1CCOCC1)[C@H]1CC[C@H]2[C@@H]3CC=C4C[C@@](C)(O)CC[C@]4(C)[C@H]3CC[C@]12C` [Compound 44-A]: the “GluN2A PCA IWB Ephys % potentiation at 3 μM” value is on record as “C (“C” indicates potentiation of >150%)”.

Take `CC[C@]1(O)CC[C@@]2(C)C(=CC[C@H]3[C@@H]4CC[C@H]([C@H](C)CC[C@H](O)CC(F)(F)F)[C@@]4(C)CC[C@@H]32)C1` [Compound 53]: the “GluN2A PCA IWB Ephys % potentiation at 3 μM” value is “C (“C” indicates potentiation of >150%)”.

The assay is the same for the next values; noted with them: 3 μM test article; HEK293 cells expressing human GRIN1/GRIN2A; co-application with EC20 L-glutamate and 30 μM glycine; read-out: GluN2A PCA IWB Ephys % potentiation at 3 μM.
`CC[C@H](O)CC[C@@H](C)[C@H]1CC[C@H]2[C@@H]3CC[C@H]4C[C@@](C)(O)CC[C@]4(C)[C@H]3CC[C@]12C` [Compound 9]: the activation at 3 µM was in the range of 75 to 150%.

As to `CC[C@]1(O)CC[C@@]2(C)C(=CC[C@H]3[C@@H]4CC[C@H]([C@H](C)CC[C@H](O)C(C)C)[C@@]4(C)CC[C@@H]32)C1` [Compound 10], the activation at 3 µM was over 150%. For the compound `CC[C@]1(O)CC[C@@]2(C)C(=CC[C@H]3[C@@H]4CC[C@H]([C@H](C)CC[C@@H](O)C(C)C)[C@@]4(C)CC[C@@H]32)C1` [Compound 11], the activation at 3 µM was over 150%. On the same count and under the same terms, the figure for `CC[C@]1(O)CC[C@@]2(C)[C@@H](CC[C@@H]3[C@@H]2CC[C@]2(C)[C@@H]([C@H](C)CC[C@H](O)C(C)C)CC[C@@H]32)C1` [Compound 13] is over 150%; for `CC(C)[C@H](O)CC[C@@H](C)[C@H]1CC[C@H]2[C@@H]3CC=C4C[C@@](C)(O)CC[C@]4(C)[C@H]3CC[C@]12C` [Compound 19] it is over 150%. `CC[C@H](O)CC[C@@H](C)[C@H]1CC[C@H]2[C@@H]3CC=C4C[C@](O)(CC)CC[C@]4(C)[C@H]3CC[C@]12C` [Compound 23]: the activation at 3 µM is over 150%. As to `C[C@H](CCC(O)C1CC1)[C@H]1CC[C@H]2[C@@H]3CC[C@H]4C[C@@](C)(O)CC[C@]4(C)[C@H]3CC[C@]12C` (stereo partly shown) [Compound 30], the activation at 3 µM was over 150%. Consider `CC[C@]1(O)CC[C@@]2(C)[C@@H](CC[C@@H]3[C@@H]2CC[C@]2(C)[C@@H]([C@H](C)CCC(C)O)CC[C@@H]32)C1` (stereo partly shown) [Compound 33], for which the activation at 3 µM lay within 10 to 75%. Turning to `CCC(O)CC[C@@H](C)[C@H]1CC[C@H]2[C@@H]3CC[C@H]4C[C@](O)(CC)CC[C@]4(C)[C@H]3CC[C@]12C` (stereo partly shown) [Compound 34], the activation at 3 µM is over 150%. As for `CC[C@@H](O)CC[C@@H](C)[C@H]1CC[C@H]2[C@@H]3CC[C@H]4C[C@](O)(CC)CC[C@]4(C)[C@H]3CC[C@]12C` [Compound 35], the activation at 3 µM is 75 to 150%. Consider `CC[C@H](O)CC[C@@H](C)[C@H]1CC[C@H]2[C@@H]3CC[C@H]4C[C@](O)(CC)CC[C@]4(C)[C@H]3CC[C@]12C` [Compound 36], for which the activation at 3 µM is over 150%. As to `CC[C@]1(O)CC[C@@]2(C)[C@@H](CC[C@@H]3[C@@H]2CC[C@]2(C)[C@@H]([C@H](C)CCC(O)C4CC4)CC[C@@H]32)C1` (stereo partly shown) [Compound 38], the activation at 3 µM is over 150%. Take `CC[C@]1(O)CC[C@@]2(C)[C@@H](CC[C@@H]3[C@@H]2CC[C@]2(C)[C@@H]([C@H](C)CC[C@H](O)C4CC4)CC[C@@H]32)C1` [Compound 39]: the activation at 3 µM lay within 10 to 75%.

Take `CC[C@]1(O)CC[C@@]2(C)[C@@H](CC[C@@H]3[C@@H]2CC[C@]2(C)[C@@H]([C@H](C)CC[C@@H](O)C4CC4)CC[C@@H]32)C1` [Compound 40]: the activation at 3 µM was over 150%.

As to `C[C@H](CC[C@@H](O)C1CCC1)[C@H]1CC[C@H]2[C@@H]3CC=C4C[C@@](C)(O)CC[C@]4(C)[C@H]3CC[C@]12C` [Compound 41-B], the activation at 3 µM is over 150%. Consider `C[C@H](CCC(O)C1CCOCC1)[C@H]1CC[C@H]2[C@@H]3CC=C4C[C@@](C)(O)CC[C@]4(C)[C@H]3CC[C@]12C` (stereo partly shown) [Compound 44], for which the activation at 3 µM is over 150%. With `C[C@H](CC[C@H](O)CC(F)(F)F)[C@H]1CC[C@H]2[C@@H]3CC=C4C[C@@](C)(O)CC[C@]4(C)[C@H]3CC[C@]12C` [Compound 45], the activation at 3 µM was over 150%.

On to `C[C@H](CC[C@@H](O)CC(F)(F)F)[C@H]1CC[C@H]2[C@@H]3CC=C4C[C@@](C)(O)CC[C@]4(C)[C@H]3CC[C@]12C` [Compound 46], for which the activation at 3 µM was over 150%. As for `C[C@H](CC[C@H](O)CC(F)(F)F)[C@H]1CC[C@H]2[C@@H]3CC[C@H]4C[C@@](C)(O)CC[C@]4(C)[C@H]3CC[C@]12C` [Compound 47], the activation at 3 µM is over 150%. As to `C[C@H](CC[C@@H](O)CC(F)(F)F)[C@H]1CC[C@H]2[C@@H]3CC[C@H]4C[C@@](C)(O)CC[C@]4(C)[C@H]3CC[C@]12C` [Compound 48], the activation at 3 µM was over 150%. On the same count and under the same terms, the figure for `CC[C@]1(O)CC[C@@]2(C)C(=CC[C@H]3[C@@H]4CC[C@H]([C@H](C)CCC(O)CC(F)(F)F)[C@@]4(C)CC[C@@H]32)C1` (stereo partly shown) [Compound 52] is over 150%. Take `CC[C@]1(O)CC[C@@]2(C)C(=CC[C@H]3[C@@H]4CC[C@H]([C@H](C)CC[C@@H](O)CC(F)(F)F)[C@@]4(C)CC[C@@H]32)C1` [Compound 54]: the activation at 3 µM was over 150%.
